{
  "source": "patent US20230202990A1",
  "about": "“CYCLOHEXYL SUBSTITUTED TRIAZOLES” (Hoffmann-La Roche Inc., priority 2020, published 2023)",
  "data": [
    {"biological_target": "T1, human V1a receptor (Homo sapiens, UniProt P37288)", "T1 construct": "expressed in transfected cells; host or cells: HEK293 cells, transiently transfected; cell membranes", "T1 sequence (P37288 whole entry)": "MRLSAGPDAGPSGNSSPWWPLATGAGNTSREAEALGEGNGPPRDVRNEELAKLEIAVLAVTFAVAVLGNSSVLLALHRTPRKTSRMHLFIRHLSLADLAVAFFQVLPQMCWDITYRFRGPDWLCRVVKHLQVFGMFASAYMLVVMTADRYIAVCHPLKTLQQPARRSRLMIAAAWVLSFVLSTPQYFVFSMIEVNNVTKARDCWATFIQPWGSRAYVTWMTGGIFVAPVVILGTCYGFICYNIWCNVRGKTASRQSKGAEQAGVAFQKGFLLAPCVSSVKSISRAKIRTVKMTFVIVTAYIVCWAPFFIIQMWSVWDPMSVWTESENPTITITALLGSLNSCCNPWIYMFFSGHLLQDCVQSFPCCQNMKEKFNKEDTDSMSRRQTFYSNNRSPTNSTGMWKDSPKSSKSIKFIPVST", "assay": "human V1a receptor binding studies (3H-Vasopressin SPA, HEK293 cell membranes)", "settings": "competition with 3H-Vasopressin on membranes of HEK293 cells transiently transfected with human V1a receptor; Ki by Cheng-Prussoff equation; read-out: pKi (hV1a) (converted)", "procedure": "The human V1a receptor was cloned by RT-PCR from total human liver RNA. The coding sequence was subcloned in an expression vector after sequencing to confirm the identity of the amplified sequence. […] Cell membranes were prepared from HEK293 cells transiently transfected with the expression vector and grown in 20 liter fermenters with the following protocol.\n50 g of cells are re-suspended in 30 ml freshly prepared ice cold Lysis buffer (50 mM HEPES, 1 mM EDTA, 10 mM MgCl2 adjusted to pH= 7.4 + complete cocktail of protease inhibitor (Roche Diagnostics)). Homogenized with Polytron for Imin and sonicated on ice for 2x 2 minutes at 80% intensity (Vibracell sonicator). The preparation is centrifuged 20 min at 500 g at 4° C., the pellet is discarded and the supernatant centrifuged 1 hour at 43 ′000g at 4° C. (19 ′000rpm). The pellet is re-suspended in 12.5 ml Lysis buffer+12.5 ml Sucrose 20% and homogenized using a Polytron for 1-2 min. The protein concentration is determined by the Bradford method and aliquots are stored at -80° C. until use. For binding studies 60 mg Yttrium silicate SPA beads (Amersham) are mixed with an aliquot of membrane in binding buffer (50 mM Tris, 120 mM NaCl, 5 mM KCl, 2 mM CaCl2, 10 mM MgCl2) for 15 minutes with mixing. 50 µl of bead/membrane mixture is then added to each well of a 96 well plate, followed by 50 µl of 4 nM 3H-Vasopressin (American Radiolabeled Chemicals). For total binding measurement 100 µl of binding buffer are added to the respective wells, for non-specific binding 100 µl of 8.4 mM cold vasopressin and for compound testing 100 µl of a serial dilution of each compound in 2% DMSO. The plate is incubated 1 h at room temperature, centrifuged 1 min at 1000 g and counted on a Packard Top-Count. Non-specific binding counts are subtracted from each well and data is normalized to the maximum specific binding set at 100%. To calculate an IC50 the curve is fitted using a non-linear regression model (XLfit) and the Ki is calculated using the Cheng-Prussoff equation.", "units": {"Ki": "nM"}, "values": [
      {"smiles": "CN(C)CCc1nnc([C@H]2CC[C@H](Oc3ccccn3)CC2)n1-c1ccc(Cl)cc1", "note": "[Example 47]", "Ki": 33.1},
      {"smiles": "Cc1cc(Cl)ccc1-n1cnnc1[C@H]1CC[C@H](Oc2ccccn2)CC1", "note": "[Example 53]", "Ki": 0.891},
      {"smiles": "COc1nnc([C@H]2CC[C@H](Oc3ccccn3)CC2)n1-c1ccc(Cl)cc1", "note": "[Example 49, trans((4-(4-(4-Chlorophenyl)-5-methoxy-4H-1,2,4-triazol-3-yl)cyclohexyl)oxy)pyridine]", "Ki": 0.646},
      {"smiles": "Cc1nnc([C@H]2CC[C@H](Oc3ccccn3)CC2)n1-c1ccc(Cl)cc1", "note": "[Example 3, trans(4-(4-(4-Chlorophenyl)-5-methyl-4H-1,2,4-triazol-3-yl)cyclohexyloxy)pyridine]", "Ki": 0.912},
      {"smiles": "Clc1ccc(-n2cnnc2[C@H]2CC[C@H](Oc3ccccn3)CC2)cc1", "note": "[Example 52, trans((4-(4-(4-Chlorophenyl)-4H-1,2,4-triazol-3-yl)cyclohexyl)oxy)pyridine]", "Ki": 2.24},
      {"smiles": "Cc1nnc([C@H]2CC[C@H](Oc3ccccn3)CC2)n1-c1ccc(Cl)cn1", "note": "[Example 23]", "Ki": 17},
      {"smiles": "CN(C)Cc1nnc([C@H]2CC[C@H](Oc3ccccn3)CC2)n1-c1ccc(Cl)cc1", "note": "[Example 43, trans(4-(4-Chlorophenyl)-5-(4-(pyridin-2-yloxy)cyclohexyl)-4H-1,2,4-triazol-3-yl)-N,N-dimethylmethanamine]", "Ki": 2.14},
      {"smiles": "C[S@+]([O-])Cc1nnc([C@H]2CC[C@H](Oc3ccccn3)CC2)n1-c1ccc(Cl)cc1", "note": "(stereo in doubt) [Example 38, trans-(-)-2-((4-(4-(4-Chlorophenyl)-5-((methylsulfinyl)methyl)-4H-1,2,4-triazol-3-yl)cyclohexyl)oxy)pyridine]", "Ki": 91.2},
      {"smiles": "COc1cc(Cl)ccc1-n1c(C)nnc1[C@H]1CC[C@@H](Oc2ccccc2)CC1", "note": "[Example 2, cis(4-Chloro-2-methoxy-phenyl)-3-methyl-5-(4-phenoxy-cyclohexyl)-4H-[1,2,4]triazole]", "Ki": 7.59},
      {"smiles": "Cc1nnc([C@H]2CC[C@H](Oc3ccccn3)CC2)n1-c1ncc(Cl)cc1F", "note": "[Example 24, transChloro-3-fluoro-2-(3-methyl(4-(pyridin-2-yloxy)cyclohexyl)-4H-1,2,4-triazol-4-yl)pyridine]", "Ki": 61.7},
      {"smiles": "Cc1cc(Cl)ccc1-n1c(C)nnc1[C@H]1CC[C@H](Oc2ccccn2)CC1", "note": "[Example 13]", "Ki": 0.269},
      {"smiles": "Cc1ccc(-n2c(C)nnc2[C@H]2CC[C@H](Oc3cnc(C)cn3)CC2)cc1", "note": "[Example 71, transMethyl-5-[4-[5-methyl-4-(4-methylphenyl)-1,2,4-triazol-3-yl]cyclohexyl]oxypyrazine]", "Ki": 17.8},
      {"smiles": "Cc1nnc([C@H]2CC[C@H](Oc3ccccn3)CC2)n1-c1ccc(Cl)cc1F", "note": "[Example 12, trans((4-(4-(4-Chlorofluorophenyl)-5-methyl-4H-1,2,4-triazol-3-yl)cyclohexyl)oxy)pyridine]", "Ki": 0.759},
      {"smiles": "COCc1nnc([C@H]2CC[C@H](Oc3ccccn3)CC2)n1-c1ccc(Cl)cc1", "note": "[Example 35, trans(4-(4-(4-Chlorophenyl)-5-(methoxymethyl)-4H-1,2,4-triazol-3-yl)cyclohexyloxy)pyridine]", "Ki": 0.631},
      {"smiles": "Cc1cnc(O[C@H]2CC[C@H](c3nnc(C)n3-c3ccc(Cl)cc3)CC2)cn1", "note": "[Example 70, trans[4-[4-(4-Chlorophenyl)-5-methyl-1,2,4-triazol-3-yl]cyclohexyl]oxy-5-methylpyrazine]", "Ki": 5.01},
      {"smiles": "CS(=O)(=O)c1nnc([C@H]2CC[C@H](Oc3ccccn3)CC2)n1-c1ccc(Cl)cc1", "note": "[Example 48, trans((4-(4-(4-Chlorophenyl)-5-(methylsulfonyl)-4H-1,2,4-triazol-3-yl)cyclohexyl)oxy)pyridine]", "Ki": 20},
      {"smiles": "C[S+]([O-])Cc1nnc([C@H]2CC[C@H](Oc3ccccn3)CC2)n1-c1ccc(Cl)cc1", "note": "(mixture of isomers) [Example 37, trans-(rac)-2-((4-(4-(4-Chlorophenyl)-5-((methylsulfinyl)methyl)-4H-1,2,4-triazol-3-yl)cyclohexyl)oxy)pyridine]", "Ki": 64.6},
      {"smiles": "Cc1nnc([C@H]2CC[C@H](Oc3ccccn3)CC2)n1-c1ccc(F)c(F)c1", "note": "[Example 21, trans((4-(4-(3,4-Difluorophenyl)-5-methyl-4H-1,2,4-triazol-3-yl)cyclohexyl)oxy)pyridine]", "Ki": 7.08},
      {"smiles": "CSc1cc(Cl)ccc1-n1c(C)nnc1[C@H]1CC[C@H](Oc2ccccn2)CC1", "note": "[Example 14, trans[4-[4-(4-Chloromethylsulfanylphenyl)-5-methyl-1,2,4-triazol-3-yl]cyclohexyl]oxypyridine]", "Ki": 1.58},
      {"smiles": "Cc1nnc([C@H]2CC[C@H](Oc3ccccn3)CC2)n1-c1ccc(C#N)cc1", "note": "[Example 8, trans(3-Methyl-5-((1r,4r)(pyridin-2-yloxy)cyclohexyl)-4H-1,2,4-triazolyl)benzonitrile]", "Ki": 38.9},
      {"smiles": "CSCCc1nnc([C@H]2CC[C@H](Oc3ccccn3)CC2)n1-c1ccc(Cl)cc1", "note": "[Example 46, trans((4-(4-(4-Chlorophenyl)-5-(2-(methylthio)ethyl)-4H-1,2,4-triazol-3-yl)cyclohexyl)oxy)pyridine]", "Ki": 0.575},
      {"smiles": "FC(F)(F)c1nnc([C@H]2CC[C@H](Oc3ccccn3)CC2)n1-c1ccc(Cl)cc1", "note": "[Example 33, trans((4-(4-(4-Chlorophenyl)-5-(trifluoromethyl)-4H-1,2,4-triazol-3-yl)cyclohexyl)oxy)pyridine]", "Ki": 2.14},
      {"smiles": "COCc1nnc([C@H]2CC[C@H](Oc3cnccn3)CC2)n1-c1ccc(C)cc1", "note": "[Example 68, trans[4-[5-(Methoxymethyl)-4-(4-methylphenyl)-1,2,4-triazol-3-yl]cyclohexyl]oxypyrazine]", "Ki": 8.13},
      {"smiles": "Cc1ccc(-n2c(C)nnc2[C@H]2CC[C@H](Oc3ccccn3)CC2)cc1F", "note": "[Example 20, trans((4-(4-(3-Fluoro-4-methylphenyl)-5-methyl-4H-1,2,4-triazol-3-yl)cyclohexyl)oxy)pyridine]", "Ki": 1.82},
      {"smiles": "COCc1nnc([C@H]2CC[C@H](Oc3cnc(C)cn3)CC2)n1-c1ccc(Cl)cc1", "note": "[Example 72, trans[4-[4-(4-Chlorophenyl)-5-(methoxymethyl)-1,2,4-triazol-3-yl]cyclohexyl]oxy-5-methylpyrazine]", "Ki": 2.95},
      {"smiles": "Cc1nnc([C@H]2CC[C@H](Oc3ccc(C(F)F)cn3)CC2)n1-c1ccc(Cl)cc1", "note": "[Example 60, trans((4-(4-(4-Chlorophenyl)-5-methyl-4H-1,2,4-triazol-3-yl)cyclohexyl)oxy)-5-(difluoromethyl)pyridine]", "Ki": 2.29},
      {"smiles": "Cc1ccc(O[C@H]2CC[C@H](c3nnc(C)n3-c3ccc(Cl)cc3)CC2)cn1", "note": "[Example 64]", "Ki": 0.324},
      {"smiles": "COCc1nnc([C@H]2CC[C@H](Oc3ccc(C)nc3)CC2)n1-c1ccc(Cl)cc1", "note": "[Example 67, trans[4-[4-(4-Chlorophenyl)(methoxymethyl)-1,2,4-triazol-3-yl]cyclohexyl]oxy-2-methylpyridine]", "Ki": 0.661},
      {"smiles": "Cc1ccc(-n2c(C)nnc2[C@H]2CC[C@H](Oc3ccc(C)cn3)CC2)cc1", "note": "[Example 57, transMethyl-2-[4-[5-methyl-4-(4-methylphenyl)-1,2,4-triazol-3-yl]cyclohexyl] oxypyridine]", "Ki": 0.447},
      {"smiles": "C[S@@+]([O-])Cc1nnc(C2CCC(Oc3ccccn3)CC2)n1-c1ccc(Cl)cc1", "note": "(single isomer, unassigned) [Example 39, trans-(+)-2-((4-(4-(4-Chlorophenyl)-5-((methylsulfinyl)methyl)-4H-1,2,4-triazol-3-yl)cyclohexyl)oxy)pyridine]", "Ki": 31.6},
      {"smiles": "Cc1ccc(-n2cnnc2[C@H]2CC[C@H](Oc3ccccn3)CC2)c(C)c1", "note": "[Example 54, trans((4-(4-(2,4-Dimethylphenyl)-4H-1,2,4-triazol-3-yl)cyclohexyl)oxy)pyridine]", "Ki": 2.19},
      {"smiles": "Cc1nnc([C@H]2CC[C@H](Oc3ccccn3)CC2)n1-c1ccc(F)cc1", "note": "[Example 4, trans((4-(4-(4-Fluorophenyl)-5-methyl-4H-1,2,4-triazol-3-yl)cyclohexyl)oxy)pyridine]", "Ki": 2.04},
      {"smiles": "Cc1nnc([C@H]2CC[C@H](Oc3ccccn3)CC2)n1-c1ccc(C(F)F)cc1", "note": "[Example 7, trans((4-(4-(4-(Difluoromethyl)phenyl)-5-methyl-4H-1,2,4-triazol-3-yl)cyclohexyl)oxy)pyridine]", "Ki": 18.6},
      {"smiles": "Cc1nnc([C@H]2CC[C@H](Oc3ccccn3)CC2)n1-c1ccccc1", "note": "[Example 5, trans((4-(5-Methyl-4-phenyl-4H-1,2,4-triazol-3-yl)cyclohexyl)oxy)pyridine]", "Ki": 5.25},
      {"smiles": "Cc1ccc(-n2c(C)nnc2[C@H]2CC[C@H](Oc3ccc(C)nc3)CC2)cc1", "note": "[Example 65, transMethyl-5-[4-[5-methyl-4-(4-methylphenyl)-1,2,4-triazol-3-yl]cyclohexyl]oxypyridine]", "Ki": 3.39},
      {"smiles": "CN(C)CCOc1nnc([C@H]2CC[C@H](Oc3ccccn3)CC2)n1-c1ccc(Cl)cc1", "note": "[Example 51]", "Ki": 32.4}
    ]}
  ]
}
